The results in this text go back to article PMC9022596, “Convergent Evolution of Antibiotic Tolerance in Patients with Persistent Methicillin-Resistant Staphylococcus aureus Bacteremia” (Infection and Immunity, 2022).

What all share (test): microbe, parasite or virus in culture
Holding throughout (parameters): species or system Staphylococcus aureus clinical blood isolates and ATCC 29213; Broth microdilution MIC in cation-adjusted Mueller-Hinton broth with 50 ug/mL CaCl2, EUCAST reading, 37 C
On the technique in general: Broth dilution looks for growth in wells or tubes with falling amounts of substance.

Test [1] has as its system T1, Staphylococcus aureus PB1511.
T1 construct: PB1511
Particulars: PB1511, 16 h, replicate MIC, MHB + 50 ug/mL CaCl2. As to the method: (§1) MICs were measured in cation-adjusted Mueller-Hinton broth (MHB) supplemented with 50 μg/mL CaCl2 (MHB-Ca^2+) via broth microdilution in 96-well plates with an inoculum of ∼5 × 10^5 CFU per mL. Antibiotic test concentrations ranged from 0.0625 μg/mL to 32 μg/mL by 2-fold dilutions. Plates were incubated at 37°C for 16 h without shaking, and results were interpreted in accordance with European Committee on Antimicrobial Susceptibility Testing reading guidelines ([72]). S. aureus ATCC 29213 was used as a quality-control strain.

For test [2], the system named is T2, Staphylococcus aureus PB0102.
T2 construct: PB0102
The settings on record: PB0102, 16 h, replicate MIC, MHB + 50 ug/mL CaCl2. As to the method:
as §1

For test [3], the system named is T3, Staphylococcus aureus PB0207.
T3 construct: PB0207
Particulars: PB0207, 16 h, replicate MIC, MHB + 50 ug/mL CaCl2. The protocol:
as §1

Test [4] relates to T4, Staphylococcus aureus PB1803.
T4 construct: PB1803
Particulars: PB1803, 16 h, replicate MIC, MHB + 50 ug/mL CaCl2. As to the method:
as §1

For the next test, the system named is T5, S. aureus ATCC 29213.
T5 construct: ATCC 29213
The settings on record: Staphylococcus aureus, ATCC29213, 16 h; replicate MIC, MHB + 50 ug/mL CaCl2. The protocol:
as §1

In test [5] the test system is T6, Staphylococcus aureus PB1406.
T6 construct: PB1406
Particulars: PB1406, 16 h, replicate MIC, MHB + 50 ug/mL CaCl2. The protocol: as §1

The subject of test [6] is T7, Staphylococcus aureus PB0804.
T7 construct: PB0804
The settings on record: PB0804, 16 h, replicate MIC, MHB + 50 ug/mL CaCl2. The protocol: as §1

Test [7] relates to T8, Staphylococcus aureus PB1512.
T8 construct: PB1512
The settings on record: PB1512, 16 h, replicate MIC, MHB + 50 ug/mL CaCl2. The protocol:
as §1

Test [8] relates to T9, Staphylococcus aureus PB0701.
T9 construct: PB0701
Particulars: PB0701, 16 h, replicate MIC, MHB + 50 ug/mL CaCl2. As to the method:
as §1

The subject of test [9] is T10, Staphylococcus aureus PB0409.
T10 construct: PB0409
Particulars: PB0409, 16 h, replicate MIC, MHB + 50 ug/mL CaCl2. The protocol: as §1

Several values for one entry are separate records, joined by “and”; a condition that tells them apart may be missing. Identical values can stand only once.

For the compound `CCO/N=C(\C(=O)N[C@@H]1C(=O)N2C(C(=O)[O-])=C(Sc3nc(-c4cc[n+](C)cc4)cs3)CS[C@H]12)c1nsc(N)n1` [Ceftaroline], the MIC in test [1] turned out to be 0.5 µg/mL; in test [2], 0.5 µg/mL; in test [3], 0.5 µg/mL; in test [4], 0.5 µg/mL; in the test with S. aureus ATCC 29213 it was 0.25 µg/mL; in [5], 0.25 µg/mL. The MIC stood at 0.5 µg/mL in test [6], 0.5 µg/mL in test [7], 0.25 µg/mL in [8] and 0.5 µg/mL in [9].

Turning to `CCCCCCCCCC(=O)N[C@@H](Cc1c[nH]c2ccccc12)C(=O)N[C@H](CC(N)=O)C(=O)N[C@@H](CC(=O)O)C(=O)N[C@@H]1C(=O)NCC(=O)N[C@@H](CCCN)C(=O)N[C@@H](CC(=O)O)C(=O)N[C@H](C)C(=O)N[C@@H](CC(=O)O)C(=O)NCC(=O)N[C@H](CO)C(=O)N[C@@H]([C@H](C)CC(=O)O)C(=O)N[C@@H](CC(=O)c2ccccc2N)C(=O)O[C@@H]1C` [Daptomycin], the MIC came out at 2 µg/mL in test [1]; 2 µg/mL in [2]; 1 µg/mL in [3]; 2 µg/mL in [4]; 1 µg/mL with S. aureus ATCC 29213; 1 µg/mL in [5]. For the same compound, the MIC was 1 µg/mL in [6]; 1 µg/mL in [7]; 1 µg/mL and 2 µg/mL in [8]; 1 µg/mL in test [9].

In the case of `CC(=O)NC[C@H]1CN(c2ccc(N3CCOCC3)c(F)c2)C(=O)O1` [Linezolid], the MIC (in test [1]; in test [2]; in [3]; in [4]; in the test with S. aureus ATCC 29213; in test [5]) was 4 µg/mL throughout. Besides, the MIC in test [6] was 2 µg/mL; in [7], 4 µg/mL; in test [8] it was 4 µg/mL; in [9] it was 4 µg/mL.

`CN[C@H](CC(C)C)C(=O)N[C@H]1C(=O)N[C@@H](CC(N)=O)C(=O)N[C@H]2C(=O)N[C@H]3C(=O)N[C@H](C(=O)N[C@H](C(=O)O)c4cc(O)cc(O)c4-c4cc3ccc4O)[C@H](O)c3ccc(c(Cl)c3)Oc3cc2cc(c3O[C@@H]2O[C@H](CO)[C@@H](O)[C@H](O)[C@H]2O[C@H]2C[C@](C)(N)[C@H](O)[C@H](C)O2)Oc2ccc(cc2Cl)[C@H]1O` [Vancomycin]: the MIC was 2 µg/mL in [1]; 2 µg/mL in [2]; 2 µg/mL and 1 µg/mL in [3]; 2 µg/mL in test [4]; 2 µg/mL with S. aureus ATCC 29213; 2 µg/mL in test [5]. The MIC in test [6], in test [7], in test [8] and in test [9] was 2 µg/mL throughout.
